Tests used:
Type in all cases: functional
[1] = tested on: NB-1691; assay: Synergistic cytotoxicity against human NB-1691 cells assessed as combination index at ED 50 measured after 72 hrs in presence of temozolomide and SN-38 by Cell-titer Glo reagent assay
[2] = tested on: NB-1691; assay: Synergistic cytotoxicity against human NB-1691 cells assessed as combination index at ED 50 measured after 72 hrs in presence of SN-38 by Cell-titer Glo reagent assay
[3] = tested on: Capan-2; assay: Synergistic cytotoxicity against human Capan-2 cells expressing KRAS mutant assessed as combination index at ED 50 measured after 72 hrs in presence of MEK inhibitor GSK1120212 by Cell-titer Glo reagent assay
[4] = tested on: NCI-H1792; assay: Synergistic cytotoxicity against human NCI-H1792 cells expressing KRAS mutant assessed as combination index at ED 50 measured after 72 hrs in presence of MEK inhibitor GSK1120212 by Cell-titer Glo reagent assay
[5] = tested on: SK-N-FI; assay: Synergistic cytotoxicity against human SK-N-FI cells assessed as combination index at ED 50 measured after 72 hrs in presence of SN-38 and temozolomide by Cell-titer Glo reagent assay
[6] = tested on: NCI-H23; assay: Synergistic cytotoxicity against human NCI-H23 cells assessed as combination index at ED 50 measured after 72 hrs in presence of MEK inhibitor GSK1120212 by Cell-titer Glo reagent assay
[7] = tested on: MIA PaCa-2; assay: Synergistic cytotoxicity against human MIA PaCa-2 cells expressing KRAS mutant assessed as combination index at ED75 measured after 72 hrs in presence of MEK inhibitor GSK1120212 by Cell-titer Glo reagent assay
[8] = tested on: SK-N-FI; assay: Synergistic cytotoxicity against human SK-N-FI cells assessed as combination index at ED 75 measured after 72 hrs in presence of SN-38 by Cell-titer Glo reagent assay
[9] = tested on: NCI-H2030; assay: Synergistic cytotoxicity against human NCI-H2030 cells expressing KRAS mutant assessed as combination index at ED75 measured after 72 hrs in presence of MEK inhibitor GSK1120212 by Cell-titer Glo reagent assay
[10] = tested on: A549; assay: Synergistic cytotoxicity against human A549 cells expressing KRAS mutant assessed as combination index at ED 50 measured after 72 hrs in presence of MEK inhibitor GSK1120212 by Cell-titer Glo reagent assay
[11] = tested on: Calu-6; assay: Synergistic cytotoxicity against human Calu-6 cells expressing KRAS mutant assessed as combination index at ED 50 measured after 72 hrs in presence of MEK inhibitor GSK1120212 by Cell-titer Glo reagent assay
[12] = tested on: NCI-H2122; assay: Synergistic cytotoxicity against human NCI-H2122 cells expressing KRAS mutant assessed as combination index at ED75 measured after 72 hrs in presence of MEK inhibitor GSK1120212 by Cell-titer Glo reagent assay
[13] = tested on: SW900; assay: Synergistic cytotoxicity against human SW900 cells expressing KRAS mutant assessed as combination index at ED 50 measured after 72 hrs in presence of MEK inhibitor GSK1120212 by Cell-titer Glo reagent assay
[14] = tested on: SW-620; assay: Synergistic cytotoxicity against human SW620 cells expressing KRAS mutant assessed as combination index at ED 50 measured after 72 hrs in presence of MEK inhibitor GSK1120212 by Cell-titer Glo reagent assay
[15] = tested on: NCI-H358; assay: Synergistic cytotoxicity against human NCI-H358 cells expressing KRAS mutant assessed as combination index at ED75 measured after 72 hrs in presence of MEK inhibitor GSK1120212 by Cell-titer Glo reagent assay
[16] = tested on: NCI-H1299; assay: Synergistic cytotoxicity against human NCI-H1299 cells expressing NRAS mutant assessed as combination index at ED 50 measured after 72 hrs in presence of MEK inhibitor GSK1120212 by Cell-titer Glo reagent assay
[17] = tested on: SK-N-FI; assay: Synergistic cytotoxicity against human SK-N-FI cells assessed as combination index at ED 75 measured after 72 hrs in presence of SN-38 and temozolomide by Cell-titer Glo reagent assay
[18] = tested on: NCI-H460; assay: Synergistic cytotoxicity against human NCI-H460 cells expressing KRAS mutant assessed as combination index at ED 50 measured after 72 hrs in presence of MEK inhibitor GSK1120212 by Cell-titer Glo reagent assay
[19] = tested on: HPAF-II; assay: Synergistic cytotoxicity against human HPAF-II cells expressing KRAS mutant assessed as combination index at ED 50 measured after 72 hrs in presence of MEK inhibitor GSK1120212 by Cell-titer Glo reagent assay
[20] = tested on: NCI-H520; assay: Synergistic cytotoxicity against human NCI-H520 cells assessed as combination index at ED 50 measured after 72 hrs in presence of MEK inhibitor GSK1120212 by Cell-titer Glo reagent assay
[21] = tested on: NB-1691; assay: Synergistic cytotoxicity against human NB-1691 cells assessed as combination index at ED 75 measured after 72 hrs in presence of SN-38 by Cell-titer Glo reagent assay
[22] = tested on: NB-1691; assay: Synergistic cytotoxicity against human NB-1691 cells assessed as combination index at ED 75 measured after 72 hrs in presence of temozolomide and SN-38 by Cell-titer Glo reagent assay
[23] = tested on: NCI-H2228; assay: Synergistic cytotoxicity against human NCI-H2228 cells assessed as combination index at ED75 measured after 72 hrs in presence of MEK inhibitor GSK1120212 by Cell-titer Glo reagent assay
[24] = tested on: SK-N-FI; assay: Synergistic cytotoxicity against human SK-N-FI cells assessed as combination index at ED 75 measured after 72 hrs in presence of temozolomide by Cell-titer Glo reagent assay
[25] = tested on: SK-N-FI; assay: Synergistic cytotoxicity against human SK-N-FI cells assessed as combination index at ED 75 measured after 72 hrs in presence of concurrent treatment of […] inhibitor CI-1040 by Cell-titer Glo reagent assay
[26] = tested on: NB-1691; assay: Synergistic cytotoxicity against human NB-1691 cells assessed as combination index at ED 50 measured after 72 hrs in presence of concurrent treatment of […] inhibitor CI-1040 by Cell-titer Glo reagent assay
[27] = tested on: NCI-H1792; assay: Synergistic cytotoxicity against human NCI-H1792 cells expressing KRAS mutant assessed as combination index at ED75 measured after 72 hrs in presence of MEK inhibitor GSK1120212 by Cell-titer Glo reagent assay
[28] = Synergistic cytotoxicity against human NB-1771 cells assessed as combination index at ED 75 measured after 72 hrs in presence of concurrent treatment of […] inhibitor CI-1040 by Cell-titer Glo reagent assay
[29] = tested on: SW1990; assay: Synergistic cytotoxicity against human SW1990 cells expressing KRAS mutant assessed as combination index at ED 50 measured after 72 hrs in presence of MEK inhibitor GSK1120212 by Cell-titer Glo reagent assay
[30] = tested on: A549; assay: Synergistic cytotoxicity against human A549 cells expressing KRAS mutant assessed as combination index at ED75 measured after 72 hrs in presence of MEK inhibitor GSK1120212 by Cell-titer Glo reagent assay

SMILES: CC(C)Oc1ccc(C(=O)N[C@H](CNC(=O)CN(C)C)Cc2ccc(-c3cn4cccc([C@H](C)O)c4n3)cc2)cc1Cl [GSK-923295A]
- CI [1]: 0.049
- CI [2]: 0.394
- CI [3]: 0.298
- CI [4]: 0.484
- CI [5]: 0.67
- CI [6]: 0.259
- CI [7]: 0.311
- CI [8]: 1.754
- CI [9]: 2.329
- CI [10]: 0.614
- CI [11]: 0.556
- CI [12]: 0.796
- CI [13]: 0.705
- CI [14]: 0.521
- CI [15]: 0.467
- CI [16]: 0.382
- CI [17]: 1.058
- CI [18]: 0.25
- CI [19]: 0.567
- CI [20]: 0.842
- CI [21]: 0.886
- CI [22]: 0.3
- CI [23]: 0.404
- CI [24]: 0.94
- CI [25]: 0.379
- CI [26]: 0.256
- CI [27]: 0.482
- CI [28]: 0.118
- CI [29]: 0.176
- CI [30]: 0.402

Source: ChEMBL document CHEMBL5647688, “Mitogen-activated protein kinase (MEK/ERK) inhibition sensitizes cancer cells to centromere-associated protein E inhibition” (Int J Cancer, 2013)
